The results in this text go back to PubChem BioAssay (NCI).

The structures appear in SMILES notation.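 Briefly, cells in 96-well plates were exposed to five compound concentrations for 48 h, and endpoints were estimated by linear interpolation. The concentration for full growth arrest is given as TGI.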

For one experiment, the system named is KM12 colon. Nature of the experiment: NCI tumour cell line growth inhibition, 48 h.
For `C#CCn1c(=O)c(I)cn(/C(=C/C(=O)OCC)C(=O)OCC)c1=O`, the TGI was 34.8 µM.

Compound `CS(=O)(=O)C(C#N)c1nc2ccccc2nc1Cl` (stereo not drawn) returned a TGI of over 58.2 µM.

Consider `O=C(/C=C/c1ccc(O)c(O)c1)OCC(OC(=O)/C=C/c1ccc(O)c(O)c1)C(=O)O` (stereo not drawn), for which the TGI was over 100 µM.

`COc1ccc(CC2COc3cc(OC)cc(OC)c3C2=O)cc1` (stereo not drawn) returned a TGI of over 100 µM.

`O=c1oc2ccccc2c(Nc2ccc3c(c2)Sc2ccccc2O3)c1[N+](=O)[O-]` had a TGI of 94.3 µM.

In the next experiment the test system is UACC-62 melanoma. As to the kind of experiment: NCI tumour cell line growth inhibition, 48 h.
As to `COC(=O)C1Cc2cc3c(cc2C1=O)CCC3` (stereo not drawn), the TGI was over 100 µM.

`Cc1c(N2C(=O)C(Cl)C2/C=C/c2ccccc2)c(=O)n(-c2ccccc2)n1C` (stereo not drawn) yielded a TGI of 31.2 µM.

Consider `Cc1ccc2c(ccc(/C=C/c3ccc(O)c4ncccc34)[n+]2C)c1`, for which the TGI amounted to 46.5 µM.

Compound `CCOC(=O)c1ccc(N=C/C=C(\Nc2ccc(C(=O)OCC)cc2)C23CC4CC(CC(C4)C2)C3)cc1` had a TGI of over 100 µM.

As for `O=c1[nH]c2cc(C(F)(F)F)ccc2nc1C(F)(F)F`, the TGI is over 100 µM.

The compound `Cc1ccc(C(=O)N/N=C(\N=Nc2cccc([N+](=O)[O-])c2)c2ccc(N(CCC#N)CCC#N)cc2C)cc1` returned a TGI of over 100 µM.

`O=C(O)c1c2c(cc3c1CC(Cc1ccccc1)C3=O)CCC2` (stereo not drawn) returned a TGI of over 100 µM.

The compound `OC(CC1CCCCN1)c1ccc2c(c1)oc1ccccc12` (stereo not drawn) registered a TGI of 44.7 µM.

Compound `C=CC[C@]1(/C=N/O)CN(S(=O)(=O)CC[Si](C)(C)C)C[C@H]2CC=CC[C@H]21` displayed a TGI of 64.9 µM.

`O=C1OC(CCCN2CCCCC2)(c2ccccc2)CC12CCCC2` (stereo not drawn) showed a TGI of over 100 µM.

Take `COC(=O)[C@@H]1C=C[C@H](OC2OC(COC(C)=O)C(OC(C)=O)C(OC(C)=O)C2OC(C)=O)n2c(=O)n(-c3ccccc3)c(=O)n21` (stereo partly drawn): the TGI is 8.89 µM.

Consider `Nc1ccccc1CCN1CCN(CCCc2ccccc2)CC1`, for which the TGI was over 100 µM.

`COC(=O)C1=C(OC(=O)/C(=C/c2ccccc2)c2ccc(Cl)cc2Cl)C(C(=O)OC)[C@@]2(O)[C@@H](C(=O)OC)[C@H](C)C[C@@H]1[C@@H]2C(=O)OC` (stereo partly drawn) had a TGI of over 100 µM.

On to `C#CCn1c(=O)c(I)cn(/C(=C/C(=O)OCC)C(=O)OCC)c1=O`, for which the TGI is 10.5 µM.

For the compound `CS(=O)(=O)C(C#N)c1nc2ccccc2nc1Cl` (stereo not drawn), the TGI is over 100 µM.

`O=C(/C=C/c1ccc(O)c(O)c1)OCC(OC(=O)/C=C/c1ccc(O)c(O)c1)C(=O)O` (stereo not drawn) came in with a TGI of over 100 µM.

The compound `COc1ccc(CC2COc3cc(OC)cc(OC)c3C2=O)cc1` (stereo not drawn) yielded a TGI of over 100 µM.

Take `O=c1oc2ccccc2c(Nc2ccc3c(c2)Sc2ccccc2O3)c1[N+](=O)[O-]`: the TGI was over 100 µM.

A further experiment has as its system NCI-H460 lung. As to the kind of experiment: NCI tumour cell line growth inhibition, 48 h.
The compound `COC(=O)C1Cc2cc3c(cc2C1=O)CCC3` (stereo not drawn) had a TGI of over 100 µM.

`Cc1c(N2C(=O)C(Cl)C2/C=C/c2ccccc2)c(=O)n(-c2ccccc2)n1C` (stereo not drawn) showed a TGI of over 100 µM.

Compound `Cc1ccc2c(ccc(/C=C/c3ccc(O)c4ncccc34)[n+]2C)c1` returned a TGI of 30.3 µM.

`CCOC(=O)c1ccc(N=C/C=C(\Nc2ccc(C(=O)OCC)cc2)C23CC4CC(CC(C4)C2)C3)cc1` had a TGI of over 100 µM.

Compound `O=c1[nH]c2cc(C(F)(F)F)ccc2nc1C(F)(F)F` returned a TGI of over 100 µM.

`Cc1ccc(C(=O)N/N=C(\N=Nc2cccc([N+](=O)[O-])c2)c2ccc(N(CCC#N)CCC#N)cc2C)cc1`: the TGI is over 100 µM.

Consider `O=C(O)c1c2c(cc3c1CC(Cc1ccccc1)C3=O)CCC2` (stereo not drawn), for which the TGI is over 100 µM.

`OC(CC1CCCCN1)c1ccc2c(c1)oc1ccccc12` (stereo not drawn) came in with a TGI of over 100 µM.

Compound `C=CC[C@]1(/C=N/O)CN(S(=O)(=O)CC[Si](C)(C)C)C[C@H]2CC=CC[C@H]21` returned a TGI of 38.5 µM.

Consider `O=C1OC(CCCN2CCCCC2)(c2ccccc2)CC12CCCC2` (stereo not drawn), for which the TGI is over 100 µM.

Regarding `COC(=O)[C@@H]1C=C[C@H](OC2OC(COC(C)=O)C(OC(C)=O)C(OC(C)=O)C2OC(C)=O)n2c(=O)n(-c3ccccc3)c(=O)n21` (stereo partly drawn), the TGI is 35.8 µM.

The compound `Nc1ccccc1CCN1CCN(CCCc2ccccc2)CC1` had a TGI of over 100 µM.

`COC(=O)C1=C(OC(=O)/C(=C/c2ccccc2)c2ccc(Cl)cc2Cl)C(C(=O)OC)[C@@]2(O)[C@@H](C(=O)OC)[C@H](C)C[C@@H]1[C@@H]2C(=O)OC` (stereo partly drawn) returned a TGI of over 100 µM.

Consider `C#CCn1c(=O)c(I)cn(/C(=C/C(=O)OCC)C(=O)OCC)c1=O`, for which the TGI worked out at 49.8 µM.

As to `CS(=O)(=O)C(C#N)c1nc2ccccc2nc1Cl` (stereo not drawn), the TGI is over 100 µM.

`O=C(/C=C/c1ccc(O)c(O)c1)OCC(OC(=O)/C=C/c1ccc(O)c(O)c1)C(=O)O` (stereo not drawn) returned a TGI of over 100 µM.

`COc1ccc(CC2COc3cc(OC)cc(OC)c3C2=O)cc1` (stereo not drawn): the TGI was over 100 µM.

The compound `O=c1oc2ccccc2c(Nc2ccc3c(c2)Sc2ccccc2O3)c1[N+](=O)[O-]` gave a TGI of 55.3 µM.

For another experiment, the system named is HOP-62 NSCLC. Nature of the experiment: NCI tumour cell line growth inhibition, 48 h.
`COC(=O)C1Cc2cc3c(cc2C1=O)CCC3` (stereo not drawn) displayed a TGI of over 100 µM.

On to `Cc1c(N2C(=O)C(Cl)C2/C=C/c2ccccc2)c(=O)n(-c2ccccc2)n1C` (stereo not drawn), for which the TGI turned out to be 60.9 µM.

Compound `Cc1ccc2c(ccc(/C=C/c3ccc(O)c4ncccc34)[n+]2C)c1` yielded a TGI of 32.9 µM.

For the compound `CCOC(=O)c1ccc(N=C/C=C(\Nc2ccc(C(=O)OCC)cc2)C23CC4CC(CC(C4)C2)C3)cc1`, the TGI was over 100 µM.

For `O=c1[nH]c2cc(C(F)(F)F)ccc2nc1C(F)(F)F`, the TGI stood at 76.7 µM.

The compound `Cc1ccc(C(=O)N/N=C(\N=Nc2cccc([N+](=O)[O-])c2)c2ccc(N(CCC#N)CCC#N)cc2C)cc1` showed a TGI of 79.7 µM.

For `O=C(O)c1c2c(cc3c1CC(Cc1ccccc1)C3=O)CCC2` (stereo not drawn), the TGI is over 100 µM.

Regarding `OC(CC1CCCCN1)c1ccc2c(c1)oc1ccccc12` (stereo not drawn), the TGI was over 100 µM.

For `C=CC[C@]1(/C=N/O)CN(S(=O)(=O)CC[Si](C)(C)C)C[C@H]2CC=CC[C@H]21`, the TGI was determined as 39 µM.

Turning to `O=C1OC(CCCN2CCCCC2)(c2ccccc2)CC12CCCC2` (stereo not drawn), the TGI is over 100 µM.

The compound `COC(=O)[C@@H]1C=C[C@H](OC2OC(COC(C)=O)C(OC(C)=O)C(OC(C)=O)C2OC(C)=O)n2c(=O)n(-c3ccccc3)c(=O)n21` (stereo partly drawn) gave a TGI of 28.1 µM.

`Nc1ccccc1CCN1CCN(CCCc2ccccc2)CC1` had a TGI of over 100 µM.

`COC(=O)C1=C(OC(=O)/C(=C/c2ccccc2)c2ccc(Cl)cc2Cl)C(C(=O)OC)[C@@]2(O)[C@@H](C(=O)OC)[C@H](C)C[C@@H]1[C@@H]2C(=O)OC` (stereo partly drawn) yielded a TGI of over 100 µM.

`C#CCn1c(=O)c(I)cn(/C(=C/C(=O)OCC)C(=O)OCC)c1=O` came in with a TGI of 32.9 µM.

The compound `CS(=O)(=O)C(C#N)c1nc2ccccc2nc1Cl` (stereo not drawn) returned a TGI of over 100 µM.

The compound `O=C(/C=C/c1ccc(O)c(O)c1)OCC(OC(=O)/C=C/c1ccc(O)c(O)c1)C(=O)O` (stereo not drawn) returned a TGI of over 100 µM.

`COc1ccc(CC2COc3cc(OC)cc(OC)c3C2=O)cc1` (stereo not drawn) returned a TGI of 97.1 µM.

Turning to `O=c1oc2ccccc2c(Nc2ccc3c(c2)Sc2ccccc2O3)c1[N+](=O)[O-]`, the TGI was over 100 µM.

For another experiment, the system named is M14 melanoma. As to the kind of experiment: NCI tumour cell line growth inhibition, 48 h.
Regarding `COC(=O)C1Cc2cc3c(cc2C1=O)CCC3` (stereo not drawn), the TGI is over 100 µM.

As for `Cc1c(N2C(=O)C(Cl)C2/C=C/c2ccccc2)c(=O)n(-c2ccccc2)n1C` (stereo not drawn), the TGI was 36 µM.

As for `Cc1ccc2c(ccc(/C=C/c3ccc(O)c4ncccc34)[n+]2C)c1`, the TGI worked out at 40.3 µM.

`CCOC(=O)c1ccc(N=C/C=C(\Nc2ccc(C(=O)OCC)cc2)C23CC4CC(CC(C4)C2)C3)cc1`: the TGI was over 100 µM.

With `O=c1[nH]c2cc(C(F)(F)F)ccc2nc1C(F)(F)F`, the TGI was over 100 µM.

As to `Cc1ccc(C(=O)N/N=C(\N=Nc2cccc([N+](=O)[O-])c2)c2ccc(N(CCC#N)CCC#N)cc2C)cc1`, the TGI was over 67.6 µM.

With `O=C(O)c1c2c(cc3c1CC(Cc1ccccc1)C3=O)CCC2` (stereo not drawn), the TGI is over 100 µM.

`OC(CC1CCCCN1)c1ccc2c(c1)oc1ccccc12` (stereo not drawn) displayed a TGI of 45 µM.

As for `C=CC[C@]1(/C=N/O)CN(S(=O)(=O)CC[Si](C)(C)C)C[C@H]2CC=CC[C@H]21`, the TGI turned out to be 45 µM.
